Source: patent publication US6932961B1, “Oxazinocarbazoles for the treatment of CNS diseases” (Pharmacia & Upjohn Company, priority 2002, dated 2005)
Counter-ions that a name gives are not always drawn.

Molecular target: T1, cloned human 5-HT6 receptor (Homo sapiens, UniProt P50406)
T1 construct: host or cells: HeLa cells (G-418 selected); membranes prepared from them
Assay: 5-HT6 receptor binding assay ([3H]-LSD, SPA)
Details: membranes of Hela cells containing cloned human 5-HT6 receptor; [3H]-LSD radioligand; Ki from estimated IC50 by Cheng-Prusoff
Method: Growth of Cells and Membrane Preparation
Hela cells containing the cloned human 5-HT6 receptor were acquired from Dr. David R. Sibley's laboratory in National Institute of Health (see Sibley, D. R., J. Neurochemistr, 66, 47-56, 1996). Cells were grown in high glucose Dulbecco's modified Eagle's medium, supplemented with L-glutamine, 0.5% sodium pyruvate, 0.3% penicillin-streptomycin, 0.025% G-418 and 5% Gibco fetal bovine serum and then were harvested, when confluent, in cold phosphate buffered saline.
Harvested intact cells were washed once in cold phosphate-buffered saline. The cells were pelleted and resuspended in 100 ml of cold 50 mM Tris, 5 mM EDTA and 5 mM EGTA, pH 7.4. Homogenization was with a Vir Tishear generator, 4 cycles for 30 seconds each at setting 50. The homogenized cells were centrifuged at […] for 10 minutes and the supernatant was removed. The pellet was resuspended in 100 ml of the above buffer and rehomogenized for 2 cycles. The rehomogenized cells were then centrifuged at […] for 10 minutes and the supernatant was removed. The combined supernatant (200 ml) was centrifuged at 23,000 RPM (80,000×g) for 1 hour in a Beckman Rotor (42.1 Ti). […]
The radioligand binding assay used [^3H]-lysergic acid diethylamide (LSD). […] The plates were then loaded into counting cassettes and counted in a Wallac MicroBeta Trilux scintillation counter. […]

T1 sequence (P50406 whole entry): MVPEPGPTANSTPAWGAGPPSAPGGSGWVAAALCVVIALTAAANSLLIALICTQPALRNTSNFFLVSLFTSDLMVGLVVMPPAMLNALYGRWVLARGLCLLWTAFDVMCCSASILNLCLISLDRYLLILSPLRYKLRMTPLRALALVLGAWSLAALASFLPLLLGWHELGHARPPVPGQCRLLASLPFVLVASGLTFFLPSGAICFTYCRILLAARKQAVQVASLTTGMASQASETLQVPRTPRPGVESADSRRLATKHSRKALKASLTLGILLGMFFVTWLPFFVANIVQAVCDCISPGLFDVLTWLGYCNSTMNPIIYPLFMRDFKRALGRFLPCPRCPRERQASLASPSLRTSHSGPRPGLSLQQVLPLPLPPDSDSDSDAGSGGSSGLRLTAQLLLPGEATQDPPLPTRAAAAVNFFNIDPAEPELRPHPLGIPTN

First: NCCOc1cccc2c1c1cccc3c1n2[C@H](c1ccccc1)CO3 [Example 2, (R)−)-[(1-Phenyl-1,2-dihydro[1,4]oxazino[2,3,4-jk]carbazol-7-yl)oxy]ethanamine and its methanesulfonic acid salt]
Second: CC(C)NCCOc1cccc2c1c1cccc3c1n2C(c1ccccc1)CO3 (centres unmarked) [Example 5, N-isopropyl-N-{2-[(1-phenyl-1,2-dihydro[1,4]oxazino[2,3,4-jk]carbazol-7-yl)oxy]ethyl}amine and its maleic acid salt]
The Ki of the first is 4.3-fold lower: 1.8 nM for the first, 7.8 nM for the second.

Tested on: not given
Assay: not given
Details: not given

Compared with CCN(CC)CCOc1cccc2c1c1cccc3c1n2C(c1ccccc1)CO3 (centres unmarked) (as salt: maleic acid salt) [Example 3, N,N-Diethyl-2-[(1-phenyl-1,2-dihydro[1,4]oxazino[2,3,4-jk]carbazol-7-yl)oxy]-1-ethanamine and its maleic acid salt], CN(C)CCOc1cccc2c1c1cccc3c1n2C(c1ccccc1)CO3 (centres unmarked) [Example 18, N,N-dimethyl-2-[(1-phenyl-1,2-dihydro[1,4]oxazino[2,3,4-jk]carbazol-7-yl)oxy]-1-ethanamine] is higher in melting point: 105 to 107 °C for the first, 117 to 118 °C for the second.

Compared with NCCOc1cccc2c1c1cccc3c1n2[C@H](c1ccccc1)CO3 (as salt: sulfonic acid salt) [Example 2, (R)−)-[(1-Phenyl-1,2-dihydro[1,4]oxazino[2,3,4-jk]carbazol-7-yl)oxy]ethanamine and its methanesulfonic acid salt], c1ccc(C2COc3cccc4c5c(OCCN6CCNCC6)cccc5n2c34)cc1 (centres unmarked) [Example 13, 1-Phenyl-1,2-dihydro[1,4]oxazino[2,3,4-jk]carbazol-7-yl 2-(1-piperazinyl)ethyl ether] is lower in melting point: 236 °C for the first, 72 °C for the second.

Going from CCNCCOc1cccc2c1c1cccc3c1n2C(c1ccccc1)CO3.O=C(O)/C=C\C(=O)O (centres unmarked) [Example 6, N-Ethyl-2-[(1-phenyl-1,2-dihydro[1,4]oxazino[2,3,4-jk]carbazol-7-yl)oxy]-ethanamine and its maleic acid salt] to CN1CCN(CCOc2cccc3c2c2cccc4c2n3C(c2ccccc2)CO4)CC1 (centres unmarked) [Example 14, 2-(4-Methyl-1-piperazinyl)ethyl 1-phenyl-1,2-dihydro[1,4]oxazino[2,3,4-jk]carbazol-7-yl ether], the melting point falls from 105 °C to 57 °C.
